Measured values from article PMC8634379, “From the Design to the In Vivo Evaluation of Benzohomoadamantane-Derived Soluble Epoxide Hydrolase Inhibitors for the Treatment of Acute Pancreatitis” (Journal of Medicinal Chemistry, 2021).
pIC50: −log10 of the molar value. Where “and” joins values, the source holds several entries; their conditions need not be identical. Equal entries are not always repeated. Where two headings read alike, the source gives them in different places.

Experiments:
human COX-2 (hCOX-2) = target: T1, human COX-2 (hCOX-2) (Homo sapiens, UniProt P35354); assay: Inhibition of hCOX-2 (Eurofins, catalogue reference 4186); type: biochemical; settings: for pIC50: performed by Eurofins
T1 sequence (P35354 18-604): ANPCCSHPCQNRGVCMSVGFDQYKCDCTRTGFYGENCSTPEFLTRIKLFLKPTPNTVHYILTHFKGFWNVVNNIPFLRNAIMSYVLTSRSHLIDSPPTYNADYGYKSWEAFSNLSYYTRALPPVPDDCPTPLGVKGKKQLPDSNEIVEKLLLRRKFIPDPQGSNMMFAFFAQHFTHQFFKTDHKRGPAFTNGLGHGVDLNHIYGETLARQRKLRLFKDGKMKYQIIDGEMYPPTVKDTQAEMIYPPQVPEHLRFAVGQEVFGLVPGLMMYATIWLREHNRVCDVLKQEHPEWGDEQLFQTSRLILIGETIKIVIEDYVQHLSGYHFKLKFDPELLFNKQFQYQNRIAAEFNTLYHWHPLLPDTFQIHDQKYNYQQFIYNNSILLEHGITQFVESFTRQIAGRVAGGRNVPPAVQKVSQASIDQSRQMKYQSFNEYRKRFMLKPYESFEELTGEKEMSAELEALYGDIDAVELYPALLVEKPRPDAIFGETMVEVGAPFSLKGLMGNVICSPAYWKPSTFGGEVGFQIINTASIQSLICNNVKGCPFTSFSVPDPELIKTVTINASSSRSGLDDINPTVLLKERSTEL

CYP 1A2 = target: T2, CYP 1A2 (Homo sapiens, UniProt P05177); assay: Cytochrome P450 inhibition, fluorescence detection; type: in vitro ADME; settings: at 10 μM
T2 sequence (P05177 1-516): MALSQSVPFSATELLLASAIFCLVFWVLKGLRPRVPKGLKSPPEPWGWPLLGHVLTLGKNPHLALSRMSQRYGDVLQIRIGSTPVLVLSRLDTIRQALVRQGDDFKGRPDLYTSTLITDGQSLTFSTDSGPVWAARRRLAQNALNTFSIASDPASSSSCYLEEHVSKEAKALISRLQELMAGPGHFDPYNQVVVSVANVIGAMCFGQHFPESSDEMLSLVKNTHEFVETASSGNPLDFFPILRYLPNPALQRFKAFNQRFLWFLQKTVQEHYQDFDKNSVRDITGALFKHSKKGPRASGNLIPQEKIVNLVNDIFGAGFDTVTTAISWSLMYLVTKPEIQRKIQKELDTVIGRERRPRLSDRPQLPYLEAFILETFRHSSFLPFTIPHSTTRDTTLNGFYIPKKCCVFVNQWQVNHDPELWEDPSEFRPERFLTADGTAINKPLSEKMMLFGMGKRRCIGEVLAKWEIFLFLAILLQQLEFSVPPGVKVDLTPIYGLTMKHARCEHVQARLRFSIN

CYP 2C19 = CYP 2C19 (Homo sapiens, UniProt P33261); assay: Cytochrome P450 inhibition, fluorescence detection; type: in vitro ADME
Chain of CYP 2C19 (P33261 whole entry): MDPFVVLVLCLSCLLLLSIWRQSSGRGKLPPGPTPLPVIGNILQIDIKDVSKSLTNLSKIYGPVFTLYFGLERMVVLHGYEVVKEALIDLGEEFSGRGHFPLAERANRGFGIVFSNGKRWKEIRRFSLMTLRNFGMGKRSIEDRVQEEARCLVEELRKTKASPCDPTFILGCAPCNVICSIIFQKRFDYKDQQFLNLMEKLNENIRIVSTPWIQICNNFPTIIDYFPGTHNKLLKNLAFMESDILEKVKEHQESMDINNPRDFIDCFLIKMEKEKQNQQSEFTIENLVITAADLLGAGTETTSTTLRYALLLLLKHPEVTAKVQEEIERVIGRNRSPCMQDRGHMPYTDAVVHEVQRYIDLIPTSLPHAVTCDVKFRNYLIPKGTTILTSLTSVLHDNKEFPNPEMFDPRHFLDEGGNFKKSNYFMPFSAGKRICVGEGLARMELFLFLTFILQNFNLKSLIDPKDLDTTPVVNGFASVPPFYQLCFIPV

CYP 2D6 = CYP 2D6 (Homo sapiens, UniProt P10635); assay: Cytochrome P450 inhibition, fluorescence detection; type: in vitro ADME; settings: at 10 μM
Chain of CYP 2D6 (P10635 whole entry): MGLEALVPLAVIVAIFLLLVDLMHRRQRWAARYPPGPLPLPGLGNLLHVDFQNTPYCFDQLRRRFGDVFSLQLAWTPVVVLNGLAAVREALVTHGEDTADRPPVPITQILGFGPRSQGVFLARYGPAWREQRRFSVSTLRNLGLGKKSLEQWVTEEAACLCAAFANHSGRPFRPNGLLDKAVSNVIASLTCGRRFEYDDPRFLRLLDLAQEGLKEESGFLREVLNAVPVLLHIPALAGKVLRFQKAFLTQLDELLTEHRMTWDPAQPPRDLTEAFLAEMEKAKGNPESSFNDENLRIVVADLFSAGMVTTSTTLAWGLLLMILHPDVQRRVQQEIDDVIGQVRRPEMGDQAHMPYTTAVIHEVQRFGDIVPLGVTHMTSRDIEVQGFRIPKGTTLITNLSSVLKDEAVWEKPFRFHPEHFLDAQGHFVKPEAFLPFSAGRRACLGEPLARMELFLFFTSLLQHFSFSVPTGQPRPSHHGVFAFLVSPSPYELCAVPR

CYP 3A4 = CYP 3A4 (Homo sapiens, UniProt P08684); assay: Cytochrome P450 inhibition, fluorescence detection; type: in vitro ADME; settings: at 10 μM; for CYP 3A4 (BFC) inhibition: substrate benzyloxytrifluoromethylcoumarin; for CYP 3A4 (DBF) inhibition: substrate dibenzylfluorescein
Chain of CYP 3A4 (P08684 whole entry): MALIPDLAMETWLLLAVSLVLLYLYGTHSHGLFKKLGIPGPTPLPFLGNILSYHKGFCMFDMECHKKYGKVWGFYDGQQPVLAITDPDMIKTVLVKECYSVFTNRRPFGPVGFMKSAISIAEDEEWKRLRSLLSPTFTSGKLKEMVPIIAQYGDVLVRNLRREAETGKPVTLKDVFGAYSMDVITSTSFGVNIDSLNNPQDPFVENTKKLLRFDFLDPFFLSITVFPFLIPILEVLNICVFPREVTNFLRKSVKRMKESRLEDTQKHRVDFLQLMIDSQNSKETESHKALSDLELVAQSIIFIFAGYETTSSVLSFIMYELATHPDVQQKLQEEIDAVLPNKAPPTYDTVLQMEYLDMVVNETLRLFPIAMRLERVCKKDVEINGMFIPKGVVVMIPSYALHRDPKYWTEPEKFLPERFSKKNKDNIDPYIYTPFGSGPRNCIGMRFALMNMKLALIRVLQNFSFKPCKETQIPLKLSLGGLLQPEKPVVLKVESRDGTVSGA
Protocol: The objective of this study was to screen the inhibition potential of the compounds using recombinant human cytochrome P450 enzymes CYP3A4 (BFC and DBF substrates) and probe substrates with fluorescent detection. Incubations were conducted in a 200 μL volume in 96-well microtiter plates (COSTAR 3915). The addition of the mixture buffer-cofactor (KH2PO4 buffer, 1.3 mM NADP, 3.3 mM MgCl2, 0.4 U/mL glucose-6-phosphate dehydrogenase), control supersomes, the Standard inhibitor Ketoconazole (Sigma K1003), and previously diluted compounds to plates was carried out by a liquid handling station (Zephyr Caliper). The plate was then preincubated at 37 °C for 5 min in a 100 μL volume, and reaction was initiated by the addition of a prewarmed enzyme/substrate (E/S) mix. The E/S mix contained buffer (KH2PO4), enzyme (CYP), substrate 7-benzyloxytrifluoromethyl coumarin (7-BFC), and dibenzylfluorescein (DBF) in a reaction volume of 200 μL. Reactions were terminated after various times depending on the substrate by addition of STOP solution (ACN/TrisHCl 0.5 M 80:20 (BFC) or 2 N NaOH for CYP3A4 (DBF). Fluorescence per well was measured using a fluorescence plate reader (Tecan M1000 pro) and percentage of inhibition was calculated.

[1] = Pharmacokinetic study after IP administration; type: in vivo, male C57BL/6 mice; settings: for AUC(0-t) / Cl / Cmax / Tmax / Vd / half-life / AUC(0-inf): ip; for AUC(0-inf): AUCINF
Protocol: During the experimental procedure, animals were identified with a permanent marker (tail code numbers). […] They underwent a period of at least 5 days of observation and acclimatization between the date of arrival and the start of the procedure. […] Diet was analyzed by the manufacturer to detect possible contaminants. Tap water was supplied by CASSA (Servei d’Aigües de Sabadell) and was provided to the animals by bottles ad libitum. […] Ministry of Agriculture, Livestock, and Fishing of the autonomous government of Catalonia, Spain. […] Formulations were prepared on the day of the study. […] Animals were weighed before each administration to adjust the required volume. […] Blood samples (0.5–0.8 mL) were collected from anesthetized animals with isoflurane by cava vein puncture in tubes containing K2-EDTA 5%. Blood samples were centrifuged at 10,000 rpm for 5 min to obtain plasma that was stored at −20 °C until analysis. Analytical measurements were performed by LC–MS/MS. Pharmacokinetics parameters were calculated with Phoenix 64 (WinNonlin).

[2] = IC50 calculated for >50% inhibition at 10 μM
[3] = male, C57BL/6, mouse, in vivo, 3 mg/kg

Row | Compound | inhibition of hCOX-2 (selectivity) (human COX-2 (hCOX-2)) | pIC50 (human COX-2 (hCOX-2)) | CYP 1A2 inhibition (CYP 1A2) | pIC50 (CYP 2C19) | pIC50 (CYP 2C19; [2]) | CYP 2D6 inhibition (CYP 2D6) | CYP 3A4 (BFC) inhibition (CYP 3A4) | CYP 3A4 (DBF) inhibition (CYP 3A4) | AUC(0-t) [1, 3] | Cl [1, 3] | Cmax [1, 3] | Tmax [1, 3] | Vd [1, 3] | half-life [1, 3] | AUC(0-inf) [1, 3] | further results
1 | CC12CC3CC(NC(=O)N[C@H]4CC[C@H](Oc5ccc(C(=O)O)cc5)CC4)(CC(C1)c1ccccc13)C2 [Compound 20, 4-[((1r,4r)-4-(3-(9-Methyl-5,6,8,9,10,11-Hexahydro-7H-5,9:7,11-dimethanobenzo[9]annulen-7-yl)ureido)cyclohexyl)oxy]benzoic Acid] | Neither 20 nor the halogenated analogues 22 and 23 significantly inhibited | < 5.00 | 1 ± 2% | ~5.70 | 5.72 | 1 ± 1% | 2 ± 2% | 14 ± 1% | 2260 ng·h/mL | 21.5 mL/min/kg | 1610 ng/mL | 0.5 h | 2.18 L/kg | 1.17 h | 2320 ng·h/mL | fold more potency inhibiting the sEH than CYP2C19 (CYP 2C19): 2000 fold; Total Concentration in mouse plasma, individual mice ([1]; male, C57BL/6, mouse, in vivo, 24 h): 0 ng/mL
2 | O=C(NC12CC3CC(Cl)(CC(C1)c1ccccc13)C2)N[C@H]1CC[C@H](Oc2ccc(C(=O)O)cc2)CC1 [Compound 22, 4-[((1r,4r)-4-(3-(9-Chloro-5,6,8,9,10,11-hexahydro-7H-5,9:7,11-dimethanobenzo[9]annulen-7-yl)ureido)cyclohexyl)oxy]benzoic Acid] | – | < 5.00 | 14 ± 4% | ~5.70 | 5.66 | 11 ± 3% | 1 ± 2% | 52 ± 4% | 22500 ng·h/mL | 2.17 mL/min/kg | 3580 ng/mL | 2 h | 0.96 L/kg | 5.2 h | 23300 ng·h/mL | Total Concentration in mouse plasma, individual mice ([1]; 3 mg/kg ip, 0.25 h (5400 for 20 excluded as outlier)): 151 ng/mL and 291 ng/mL and 622 ng/mL; Total Concentration in mouse plasma, individual mice ([1]; 3 mg/kg ip, 0.5 h): 1520 ng/mL and 1980 ng/mL; Total Concentration in mouse plasma, individual mice ([1]; 3 mg/kg ip, 1 h): 1100 ng/mL and 2640 ng/mL and 600 ng/mL; Total Concentration in mouse plasma, individual mice ([1]; 3 mg/kg ip, 2 h): 2440.0 ng/mL and 2640.0 ng/mL and 5670.0 ng/mL; Total Concentration in mouse plasma, individual mice ([1]; 3 mg/kg ip, 4 h): 1960.0 ng/mL and 1350.0 ng/mL; Total Concentration in mouse plasma, individual mice ([1]; 3 mg/kg ip, 6 h): 1160 ng/mL and 734.0 ng/mL and 1530 ng/mL; Total Concentration in mouse plasma, individual mice ([1]; 3 mg/kg ip, 24 h): 181.0 ng/mL and 40.6 ng/mL and 92.3 ng/mL; concentration at 0.25 h ([1]; male, C57BL/6, mouse, in vivo, 3 mg/kg, 3 mg/kg ip, 0.25 h, read-out: Mean concentration in mouse plasma): 355 ng/mL; concentration at 0.5 h ([1]; male, C57BL/6, mouse, in vivo, 3 mg/kg, 3 mg/kg ip, 0.5 h, read-out: Mean concentration in mouse plasma): 1620 ng/mL; concentration at 0.5 h ([1]; male, C57BL/6, mouse, in vivo, 3 mg/kg, 3 mg/kg ip, 0.5 h, read-out: Total Concentration in mouse plasma, individual mice): 1350 ng/mL; concentration at 1 h ([1]; male, C57BL/6, mouse, in vivo, 3 mg/kg, 3 mg/kg ip, 1 h, read-out: Mean concentration in mouse plasma): 1450 ng/mL; concentration at 2 h ([1]; male, C57BL/6, mouse, in vivo, 3 mg/kg, 3 mg/kg ip, 2 h, read-out: Mean concentration in mouse plasma): 3580 ng/mL; concentration at 4 h ([1]; male, C57BL/6, mouse, in vivo, 3 mg/kg, 3 mg/kg ip, 4 h, read-out: Mean concentration in mouse plasma): 1520 ng/mL; concentration at 4 h ([1]; male, C57BL/6, mouse, in vivo, 3 mg/kg, 3 mg/kg ip, 4 h, read-out: Total Concentration in mouse plasma, individual mice): 1240 ng/mL; concentration at 6 h ([1]; male, C57BL/6, mouse, in vivo, 3 mg/kg, 3 mg/kg ip, 6 h, read-out: Mean concentration in mouse plasma): 1140 ng/mL; concentration at 24 h ([1]; male, C57BL/6, mouse, in vivo, 3 mg/kg, 3 mg/kg ip, 24 h, read-out: Mean concentration in mouse plasma): 105 ng/mL
3 | O=C(NC12CC3CC(F)(CC(C1)c1ccccc13)C2)N[C@H]1CC[C@H](Oc2ccc(C(=O)O)cc2)CC1 [Compound 23, 4-[((1r,4r)-4-(3-(9-Fluoro-5,6,8,9,10,11-hexahydro-7H-5,9:7,11-dimethanobenzo[9]annulen-7-yl)ureido)cyclohexyl)oxy]benzoic Acid] | Neither 20 nor the halogenated analogues 22 and 23 significantly inhibited | < 5.00 | – | – | – | – | – | – | – | – | – | – | – | – | – | –
